Laboratory results reported in ChEMBL document CHEMBL5500389, “Discovery of the Selective and Orally Available Galectin-1 Inhibitor GB1908 as a Potential Treatment for Lung Cancer” (J Med Chem, 2024).

Key:
[1] = Apparent permeability across apical to basal side in human Caco-2 cells at 10 uM incubated for 90 mins by LC-MS/MS analysis
[2] = Efflux ratio of apparent permeability across apical to basal side over basal to apical side in human Caco-2 cells at 10 uM incubated for 90 mins by LC-MS/MS analysis
Galectin-3 [3] = target: Galectin-3 (Homo sapiens, UniProt P17931); assay: Binding affinity to human galectin-3 assessed as dissociation constant by competitive fluorescence polarization assay
Sequence of Galectin-3 (Homo sapiens, UniProt P17931) (P17931 whole entry): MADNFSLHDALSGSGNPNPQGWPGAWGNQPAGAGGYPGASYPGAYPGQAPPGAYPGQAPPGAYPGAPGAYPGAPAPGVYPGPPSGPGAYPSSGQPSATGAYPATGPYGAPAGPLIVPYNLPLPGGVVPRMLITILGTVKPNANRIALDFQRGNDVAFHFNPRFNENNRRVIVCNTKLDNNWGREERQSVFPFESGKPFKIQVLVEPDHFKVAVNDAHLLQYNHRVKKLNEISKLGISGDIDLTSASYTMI

Galectin-3 [4] = target: Galectin-3 (Mus musculus, UniProt P16110); assay: Binding affinity to mouse galectin-3 assessed as dissociation constant by competitive fluorescence polarization assay
Sequence of Galectin-3 (Mus musculus, UniProt P16110) (P16110 whole entry): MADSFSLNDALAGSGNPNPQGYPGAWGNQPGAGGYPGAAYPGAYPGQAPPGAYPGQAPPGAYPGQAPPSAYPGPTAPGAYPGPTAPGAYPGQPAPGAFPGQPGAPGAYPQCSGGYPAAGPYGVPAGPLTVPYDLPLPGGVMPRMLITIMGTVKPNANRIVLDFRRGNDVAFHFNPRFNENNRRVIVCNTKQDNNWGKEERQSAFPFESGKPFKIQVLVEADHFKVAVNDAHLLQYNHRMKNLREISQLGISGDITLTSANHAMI

Galectin-1 [5] = target: T1, Galectin-1 (Homo sapiens, UniProt P09382); assay: Binding affinity to human galectin-1 assessed as dissociation constant by competitive fluorescence polarization assay
T1 sequence (P09382 whole entry): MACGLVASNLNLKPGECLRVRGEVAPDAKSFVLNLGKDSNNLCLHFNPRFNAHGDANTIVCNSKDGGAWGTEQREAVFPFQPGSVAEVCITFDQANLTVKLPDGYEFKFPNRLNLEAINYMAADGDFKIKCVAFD

physchem = conditions: octanol/potassium phosphate buffer, pH 7.4
Galectin-1 [6] = target: T1, Galectin-1; assay: Binding affinity to human galectin-1 assessed as dissociation constant by fluorescein probe based fluorescence polarization assay
[7] = Apparent permeability across basal to apical side in human Caco-2 cells at 10 uM incubated for 90 mins by LC-MS/MS analysis
[8] = Stability in mouse hepatocytes assessed as hepatic intrinsic clearance at 2 uM measured per million cells for 15 to 120 mins by LC-MS/MS analysis; format: ADME, cell-based, Hepatocyte; conditions: time 15-120 min, read-out: CLH
Galectin-1 [9] = target: Galectin-1 (Mus musculus, UniProt P16045); assay: Binding affinity to mouse galectin-1 assessed as dissociation constant by fluorescein probe based fluorescence polarization assay
Sequence of Galectin-1 (Mus musculus, UniProt P16045) (P16045 whole entry): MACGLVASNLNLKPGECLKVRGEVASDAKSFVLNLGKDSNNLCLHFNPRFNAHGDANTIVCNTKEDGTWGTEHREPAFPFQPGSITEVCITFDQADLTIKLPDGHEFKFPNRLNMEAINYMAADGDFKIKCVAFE

[10] = Stability in human hepatocytes assessed as hepatic intrinsic clearance at 2 uM measured per million cells for 15 to 120 mins by LC-MS/MS analysis; format: ADME, cell-based, Hepatocyte; conditions: time 15-120 min, read-out: CLH

Papp A→B at 1.5 h, 10 µM [1]	efflux ratio at 1.5 h, 10 µM [2]	Kd (Galectin-3 [3])	Kd (Galectin-3 [4])	Kd (Galectin-1 [5])	logD at 1 h (physchem)	Kd (Galectin-1 [6])	Papp B→A at 1.5 h, 10 µM [7]	hepatocyte CLint at 2 µM [8]	Kd (Galectin-1 [9])	hepatocyte CLint at 2 µM [10]	SMILES
8.8 ×10⁻⁶ cm/s	3.4	–	–	–	–	–	–	–	–	–	OC[C@H]1O[C@H](Sc2cc(Cl)c(F)c(Cl)c2)[C@H](O)[C@@H](n2cc(-c3cscn3)nn2)[C@H]1O
–	–	1 nM	34 nM	4 nM	–	–	–	–	–	–	OC[C@H]1O[C@@H](S[C@@H]2O[C@H](CO)[C@H](O)[C@H](n3cc(-c4csc(O)n4)nn3)[C@H]2O)[C@H](O)[C@@H](n2cc(-c3cc(F)c(F)c(F)c3)nn2)[C@H]1O
0.6 ×10⁻⁶ cm/s	87	–	–	–	3.8	3430 nM	52 ×10⁻⁶ cm/s	–	–	–	CN(C)c1nc(-c2cn([C@@H]3[C@@H](O)[C@@H](Sc4cc(Cl)c(F)c(Cl)c4)O[C@H](CO)[C@@H]3O)nn2)cs1
0.9 ×10⁻⁶ cm/s	63	–	–	–	3.3	34 nM	57 ×10⁻⁶ cm/s	< 1.5 µL/min/1e6 cells	43 nM	2.5 µL/min/1e6 cells	CO[C@@H]1[C@@H](n2cc(-c3csc(O)n3)nn2)[C@@H](O)[C@@H](CO)O[C@@H]1Sc1cc(Cl)c(F)c(Cl)c1
3.5 ×10⁻⁶ cm/s	11	–	–	–	3	98 nM	39 ×10⁻⁶ cm/s	1.6 µL/min/1e6 cells	91 nM	4.6 µL/min/1e6 cells	CO[C@@H]1[C@@H](n2cc(-c3csc(N)n3)nn2)[C@@H](O)[C@@H](CO)O[C@@H]1Sc1cc(Cl)c(F)c(Cl)c1
< 0.24 ×10⁻⁶ cm/s	> 192	–	–	–	2.9	1360 nM	46 ×10⁻⁶ cm/s	–	–	–	CNc1nc(-c2cn([C@@H]3[C@@H](O)[C@@H](Sc4cc(Cl)c(F)c(Cl)c4)O[C@H](CO)[C@@H]3O)nn2)cs1
20 ×10⁻⁶ cm/s	1.4	–	–	–	3.7	145 nM	28 ×10⁻⁶ cm/s	< 1.5 µL/min/1e6 cells	160 nM	4.4 µL/min/1e6 cells	CO[C@@H]1[C@@H](n2cc(-c3nccs3)nn2)[C@@H](O)[C@@H](CO)O[C@@H]1Sc1cc(Cl)c(F)c(Cl)c1
